Like-named read-outs stand apart in the source and are kept apart here. Blank lines part the entries; values can stand above or below the compound they belong to.
Tests used:
rat aortic rings = assay: Contraction and endothelium dependent relaxation of rat aortic rings; conditions: mean (±SEM)
Procedure: Male Sprague-Dawley rats (200-250 g) were euthanized with an overdose of sodium pentobarbital (100 mg/kg, i.p.) and bled. The thoracic aorta was excised and cleaned and rings 3-4 mm in length were cut, taking care not to disturb the endothelium The rings were suspended in tissue baths containing a physiologic salt solution. The solution was bubbled continuously with O2/CO2 (95%/5%), and maintained at 37° C. Contraction activity was recorded on a Grass polygraph. After equilibration for at least 1 h under 1.5 g of tension, tissues were contracted submaximally (approximately 80% of Emax) with 1 μM phenylephrine. […] This concentration of acetylcholine is sufficient to produce maximum endothelium dependent relaxation in intact rings.
Rings were washed with physiological salt solution three times over the next 45 min. prior to the subsequent testing. Beginning with a concentration determined in preliminary experiments to be below the threshold for relaxation, and increased until a relaxation of approximately 15% was achieved (relative to the relaxation induced by 3 μM acetycholine).

[1] = Preliminary ex-vitro trials: cholesterol solubility in human plasma
Source text: Limonene is commonly thought of as a solvent, having a KB value of 67.

human platelets [2] = assay: Human platelet aggregation trial with thrombin as aggregating agent; type: cell-based
Procedure: (§1) Human platelet aggregation trials, using PAF and thrombin as aggregating agents, were conducted with gallic acid, catechin and amidated catechin multimers (made according to the process of Example 1). The protocol was as follows: Test compounds (50 μM gallic acid, 100 μM catechin and 3 μM amidated catechin multimer) were dissolved in water and 10 μl of sample was added to 1 ml aliquots of human platelets to give the final estimated vessel content concentration of 3 μM.^1 Next, human platelets at a concentration of 1×10^−7/ml were preincubated for ten minutes at 37° C. with either vehicle (contol) or with 3 μM of the amino-catechin multimer test compound. Then, either platelet activating factor (5×10^−10 μM) or thrombin (0.05 mg/ml) were added and aggregation was monitored over the next 10 minutes in a PACKS-4 Platelet Aggregation Chromogenic Kinetic System (Helena Lab., Beaumont, Tex.). ^1 The molar concentration of total product was 10 μM. […] For molar calculations, the molecular weight of the amino-catechin was presumed to be 300 daltons.

human platelets [3] = assay: Human platelet aggregation trial with platelet activating factor (PAF) as aggregating agent; type: cell-based
Procedure: as §1

EC50 (rat aortic rings; rat aortic rings, read-out: EC50 value for phenylephrine (contractile effect)): 140 ± 20 nM
SMILES: CNC[C@H](O)c1cccc(O)c1 [phenylephrine]

SMILES: C=C(C)C1CC=C(C)CC1 (centres unmarked) [limonene, 4-isopropenyl-1-methylcyclohexene]
rate of plasma metabolizing excess cholesterol ([1]; minimum rate): ≥ 4 % per hour | increase of the rate of solubility of cholesterol ([1]; over a one hour period): 24%

SMILES: O.Oc1cc(O)c2c(c1)O[C@H](c1ccc(O)c(O)c1)[C@@H](O)C2 [catechin]
inhibition of human platelet aggregation caused by thrombin (human platelets [2]; 100 μM): no inhibition | inhibition of human platelet aggregation caused by platelet activating factor (human platelets [3]; 100 μM): no inhibition

SMILES: O=C(O)c1cc(O)c(O)c(O)c1 [gallic acid]
inhibition of human platelet aggregation caused by thrombin (human platelets [2]; 50 μM): no inhibition | inhibition of human platelet aggregation caused by platelet activating factor (human platelets [3]; 50 μM): no inhibition

EC50 (rat aortic rings; rat aortic rings contracted with 1 μM phenylephrine, read-out: EC50 for EDR (endothelium dependent relaxation)): 120 ± 60 nM
SMILES: CC(=O)OCC[N+](C)(C)C [acetylcholine]
